In US10363248B2, “Salts of heterocyclic modulators of HIF activity for treatment of disease” (priority 2014, dated 2019):
Where “and” joins values, the source holds several entries; their conditions need not be identical. Identical values can stand only once. Entries after “also recorded” stand apart in the source; their conditions may differ. Counter-ions that a name gives are not always drawn. Like-named read-outs stand apart in the source and are kept apart here.

Experiments:
[1] = Plasma concentration-time data and PK parameters after a PO dose of 10 mg/kg in female CD1 nude mice (Groups 1-5)
Description: (§1) Pharmacokinetic studies were performed in female CD-1 nude mice. —Either 10 or 50 mg/kg of each test article was administered PO, QD in 0.5% methylcellulose aqueous solution or suspension. […] Plasma concentrations were analyzed using a LC/MS method and the pharmacokinetic parameters computed using a noncompartmental method.

[2] = Plasma concentration in female CD-1 nude mice, formulation groups A-C; type: in vivo; settings: for concentration at 24 h: group mean; for concentration at 6 h: time point 6 h; for concentration at 6 h / concentration at 8 h: individual mouse; for concentration at 8 h: time point 8 h
Description: as §1

OCI-AML3 cells = assay: OCI-AML3 human leukemia model in NSG mice; type: in vivo, NSG nude mice; settings: daily oral 10 mg/kg
Description: (§2) The OCI-AML3 cell line was treated with various concentrations of compound for 2 days and the percent of viable cells normalized to control cells treated with DMSO (FIG. 6). OCI-AML3 cells constitutively expressing luciferase were tail vein injected in NSG nude mice. 17 days after cell injection, luciferin was injected into animals and luciferase signal was measured using an IVIS imaging system to determine tumor burden and for randomization of subjects into study groups. On day 18, animals began receiving daily oral doses of vehicle or 10 mpk of the compound of Example 80 which continued throughout the study. On day 28, imaging was performed again to determine tumor burden (FIG. 7).

NB-1 cells = assay: Neuroblastoma cellular assay; type: cell-based; settings: various concentrations
Text: (§3) NB-1, Gli56, and D423 cell lines are deleted for ENO-1 (GLI56 and D423) or PGD, which renders them with reduced glycolytic capacity (Muller, F. et al., Nature, 2012, 488, 337-42).

Gli56 cells = assay: Glioblastoma cellular assay Gli56; type: cell-based; settings: various concentrations
Text: as §3

D423 cells = assay: Glioblastoma cellular assay D423; type: cell-based; settings: various concentrations; FIG. 4
Text: as §3

OCI-AML3 cell line = assay: Acute myeloid leukemia cell viability; type: cell-based; settings: various concentrations, 2 days; normalized to DMSO; FIG. 6
Description: as §2

NB-1 xenografts = assay: NB-1 xenograft model; type: in vivo, CD-1 nude mice; settings: daily oral treatment with 10 mg/kg; FIG. 5
[3] = Dynamic vapor sorption (DVS); type: physicochemical; settings: for DVS Sorption (%): weight gain from 0 to 80% RH, 25° C; for form transformation after DVS test: XRPD after DVS; for hygroscopicity classification: according to DVS result
Description: Transfer about 10 mg of sample into a DVS (DVS Advantage-1, SMS) and record the weight change with respect to the atmospheric humidity at 25° C. Use the following parameters: Equilibrium: dm/dt: 0.01%/min. (for min: 10 min and max: 180 min). Drying: 0% RH for 120 min RH (%) measurement step: 10%; RH (%) measurement step scope: 0-90-0%

TMD8 cells = assay: Diffuse large B-cell lymphoma (DLBCL) assay, viable cells; type: cell-based; settings: varying concentrations, 7 days; Guava ViaCount; FIG. 1
Description: Equal number of TMD8 cells were plated and treated with varying concentrations of the compound of Example 80 for 7 days. Percent of viable cells was determined using Guava ViaCount reagents (EMD Millipore cat #4000-0040) that contains proprietary dyes that enable the determination of the number of live and dead cells in a sample (FIG. 1).

293T-HRE-GFP-luc cells = assay: Cell-based reporter assay for IC50 determinations; settings: hypoxia for 6 hrs. (1% O2); luminescence; read-out: IC50 Classification
Description: IC50 values were calculated using a four-parameter logistic curve fit.

[4] = time point 2 h, individual mice, PO, QD, 10 or 50 mg/kg, 2,2,2-trifluoroacetate
[5] = time point 24 h, individual mice, PO, QD, 10 or 50 mg/kg, 2,2,2-trifluoroacetate
[6] = female, CD-1 nude, mouse, in vivo, po, 10 mg/kg
[7] = time point 2 h, individual mice, PO, QD, 10 or 50 mg/kg, listed as A
[8] = time point 24 h, individual mice, PO, QD, 10 or 50 mg/kg, listed as A
[9] = female, CD-1 nude, mouse, oral, read-out: Calc. Conc.
[10] = female, CD-1 nude, mouse, oral, read-out: Calc. Conc. (ng/mL)
[11] = time point 2 h, individual mice, PO, QD, 10 or 50 mg/kg, listed as C, methanesulfonate
[12] = time point <24, individual mouse

## Cc1nc(-c2nc(-c3ccc(OC(F)(F)F)cc3)no2)nn1Cc1cccc(N2CCC(S(C)(=O)=O)CC2)c1.O=C(O)C(F)(F)F [5-(5-methyl-1-(3-(4-(methylsulfonyl)piperidin-1-yl)benzyl)-1H-1,2,4-triazol-3-yl)-3-(4-(trifluoromethoxy)phenyl)-1,2,4-oxadiazole 2,2,2-trifluoroacetate]
[1]; CD-1 mice, PO
  plasma concentrations compared with the free base: significantly higher

## Cc1nc(-c2nc(-c3ccc(OC(F)(F)F)cc3)no2)nn1Cc1cccc(N2CCC(S(C)(=O)=O)CC2)c1.Cl [5-(5-methyl-1-(3-(4-(methylsulfonyl)piperidin-1-yl)benzyl)-1H-1,2,4-triazol-3-yl)-3-(4-(trifluoromethoxy)phenyl)-1,2,4-oxadiazole hydrochloride]
[1]; mouse, in vivo, po
  plasma concentrations compared with the free base: significantly higher

## Cc1nc(-c2nc(-c3ccc(OC(F)(F)F)cc3)no2)nn1Cc1cccc(N2CCC(S(C)(=O)=O)CC2)c1 [B, 5-(5-methyl-1-(3-(4-(methylsulfonyl)piperidin-1-yl)benzyl)-1H-1,2,4-triazol-3-yl)-3-(4-(trifluoromethoxy)phenyl)-1,2,4-oxadiazole 2,2,2-trifluoroacetate]
[2]; time point 2 h, PO, QD, 10 or 50 mg/kg, 2,2,2-trifluoroacetate
  concentration at 24 h: 834.8 nM
[2]; [4]
  Calc. Conc. (nM): 1131.9 nM and 748.0 nM and 793.6 nM and 632.1 nM and 868.2 nM
  Calc. Conc. (ng/mL): 636.4 ng/mL and 420.5 ng/mL and 446.2 ng/mL and 355.4 ng/mL and 488.1 ng/mL
[2]; time point 24 h, PO, QD, 10 or 50 mg/kg, 2,2,2-trifluoroacetate
  concentration at 24 h: 776.4 nM
[2]; [5]
  Calc. Conc. (nM): 1426.5 nM and 220.7 nM and 1116.1 nM and 490.3 nM and 628.2 nM
  Calc. Conc. (ng/mL): 802.0 ng/mL and 124.1 ng/mL and 627.5 ng/mL and 275.6 ng/mL and 353.2 ng/mL

## Cc1nc(-c2nc(-c3ccc(OC(F)(F)F)cc3)no2)nn1Cc1cccc(N2CCC(S(C)(=O)=O)CC2)c1.O=S(=O)(O)c1ccccc1 [BESYLATE SALT, 1-(3-((5-methyl-3-(3-(4-(trifluoromethoxy)phenyl)-1,2,4-oxadiazol-5-yl)-1H-1,2,4-triazol-1-yl)methyl)phenyl)-4-(methylsulfonyl)piperidin-1-ium benzenesulfonate]
[1]; mouse, in vivo, po
  oral bioavailability in comparison to the free base: improved oral bioavailability
  plasma concentrations compared with the free base: significantly higher

## Cc1nc(-c2nc(-c3ccc(OC(F)(F)F)cc3)no2)nn1Cc1cccc(N2CCC(S(C)(=O)=O)CC2)c1 [Example 80, 4-Methanesulfonyl-1-{3-[(5-methyl-3-{3-[4-(trifluoromethoxy)phenyl]-1,2,4-oxadiazol-5-yl}-1H-1,2,4-triazol-1-yl)methyl]phenyl}piperidine]
OCI-AML3 cells; FIG. 7
  disease burden measured by IVIS imaging: reduces disease burden
OCI-AML3 cells; relative to vehicle, FIG. 8, 10 mg/kg
  survival: extends survival; also recorded: significantly increased their survival
[1]; [6]
  AUCINF: 16.2 µM·h
  AUClast: 12.1 µM·h
  Cmax: 959 nM
  Terminal t1/2: 12.4 h
[1]; female, CD-1 nude, mouse, in vivo, po, 10 mg/kg, 0.083 hr
  Concentration Mean: 28.9 nM
[1]; female, CD-1 nude, mouse, in vivo, po, 10 mg/kg, 0.25 hr
  Concentration Mean: 280 nM
[1]; female, CD-1 nude, mouse, in vivo, po, 10 mg/kg, 0.5 hr
  Concentration Mean: 440 nM
NB-1 cells
  cell death in NB-1 cells: cell death readily apparent
NB-1 cells; FIG. 2
  number of viable NB-1 cells: reduced number of viable cells; also recorded: cell numbers are significantly reduced
Gli56 cells
  cell death in Gli56 cells: cell death readily apparent
Gli56 cells; FIG. 3
  number of viable Gli56 cells: reduced number of viable cells; also recorded: cell numbers are significantly reduced
D423 cells
  number of viable D423 cells: reduced number of viable cells; also recorded: cell numbers are significantly reduced
[2]; female, CD-1 nude, mouse, oral, time point 24 h, PO, QD, 10 or 50 mg/kg
  concentration at 24 h: 414 nM
[2]; time point 2 h, PO, QD, 10 or 50 mg/kg, listed as A
  concentration at 24 h: 561.2 nM
[2]; [7]
  Calc. Conc. (nM): 591.7 nM and 510.0 nM and 285.4 nM and 657.3 nM and 761.7 nM
  Calc. Conc. (ng/mL): 332.7 ng/mL and 286.7 ng/mL and 160.4 ng/mL and 369.5 ng/mL and 428.2 ng/mL
[2]; [8]
  Calc. Conc. (nM): 987.2 nM and 307.2 nM and 342.7 nM and 233.3 nM and 201.3 nM
  Calc. Conc. (ng/mL): 555.0 ng/mL and 172.7 ng/mL and 192.7 ng/mL and 131.2 ng/mL and 113.1 ng/mL
OCI-AML3 cell line
  number of viable OCI-AML3 cells: reduced number of viable cells
NB-1 xenografts
  growth of NB-1 xenografts (tumor growth): reduces the tumor growth
[3]
  DVS Sorption (%): 0.16%
TMD8 cells
  number/percent of viable TMD8 cells: reduced number of viable cells; also recorded: respond robustly
293T-HRE-GFP-luc cells
  IC50: < 100 nM

## Cc1nc(-c2nc(-c3ccc(OC(F)(F)F)cc3)no2)nn1Cc1cccc(N2CCC(S(C)(=O)=O)CC2)c1 [HYDROCHLORIDE SALT, 5-(5-methyl-1-(3-(4-(methylsulfonyl)piperidin-1-yl)benzyl)-1H-1,2,4-triazol-3-yl)-3-(4-(trifluoromethoxy)phenyl)-1,2,4-oxadiazole hydrochloride]
[1]; mouse, in vivo, po
  oral bioavailability in comparison to the free base: improved oral bioavailability
[3]
  form transformation after DVS test: No form transformation was observed
  hygroscopicity classification: slightly hygroscopic
[3]; listed as HCl, hydrochloride
  DVS Sorption (%): 1.59%
[3]; listed as hydrochloride candidate, hydrochloride
  DVS Sorption (%): 1.59%

## CS(=O)(=O)O.Cc1nc(-c2nc(-c3ccc(OC(F)(F)F)cc3)no2)nn1Cc1cccc(N2CCC(S(C)(=O)=O)CC2)c1 [MESYLATE SALT, 1-(3-((5-methyl-3-(3-(4-(trifluoromethoxy)phenyl)-1,2,4-oxadiazol-5-yl)-1H-1,2,4-triazol-1-yl)methyl)phenyl)-4-(methylsulfonyl)piperidin-1-ium methanesulfonate]
[1]; mouse, in vivo, po
  oral bioavailability in comparison to the free base: improved oral bioavailability
  plasma concentrations compared with the free base: significantly higher
[2]; [9]
  concentration at 6 h: 2950 nM
  concentration at 8 h: 2910 nM
[2]; [10]
  concentration at 6 h: 1660 ng/mL
  concentration at 8 h: 1640 ng/mL
[2]; time point 2 h, PO, QD, 10 or 50 mg/kg
  concentration at 24 h: 2249.9 nM
[2]; [11]
  Calc. Conc. (nM): 2676.0 nM and 1457.7 nM and 2725.3 nM and 2248.5 nM and 2141.9 nM
  Calc. Conc. (ng/mL): 1504.5 ng/mL and 819.5 ng/mL and 1532.2 ng/mL and 1264.1 ng/mL and 1204.2 ng/mL
[2]; [12]
  Calc. Conc. (nM): 1469.8 nM
  Calc. Conc. (ng/mL): 826.3 ng/mL
[3]
  form transformation after DVS test: No form transformation was observed
  hygroscopicity classification: hygroscopic
  DVS Sorption (%): 2.47%
